Test results taken from patent US10149473B2, “Aminoindanes amides having a high fungicidal activity and their phytosanitary compositions” (STITCHING I-F PRODUCT COLLABORATION, priority 2010, dated 2018).

How the values were obtained:
[1] = system: Erysiphe graminis; test: Fungicidal activity in preventive application (5 days) against Erysiphe graminis on wheat; assay type: in vivo, Erysiphe graminis on wheat (Salgemma variety); settings: 125 ppm, leaf spray, infection 5 days after treatment, evaluation after 12 days, percentage scale 100 = healthy plant, 0 = completely infected plant; for Activity NT (parts which had developed during the test): non-treated parts (NT)
Procedure: Determination of the Fungicidal Activity in Preventive Application (5 Days) Against Erysiphe graminis on Wheat.
(§1) Leaves of wheat plants of the Salgemma variety, grown in pots in a conditioned environment kept at 20° C. and 70% of relative humidity (R.H.), were treated by spraying on both sides of the leaves with the compounds under examination, dispersed in hydroacetonic solutions at 20% by volume of acetone.
After remaining 5 days in a conditioned environment, the plants were infected under dry conditions by shaking over them, in order to distribute the inoculum, plants previously infected by Erysiphe graminis.
The plants were then maintained in the same cell, in a humidity-saturated environment and at a temperature ranging from 18 to 24° C. for 12 days.
At the end of this period, the external symptoms of the pathogen appeared and it was therefore possible to proceed with the evaluation of the intensity of the infection, on both the parts treated directly with the products (T), and also on the parts which had developed during the test (NT), by means of a visible percentage evaluation scale of the area of affected leafs; the scale comprises, as extremes, the value 100 (healthy plant) and the value 0 (completely infected plant).

[2] = system: wheat plants; test: Phytotoxicity (percentage of leaf necrosis) induced on wheat plants; assay type: in vivo, wheat (Salgemma variety); settings: 125 ppm on wheat, scale 0 = completely healthy plant to 100 = completely necrotized plant
Procedure: as §1
At the same time, the phytotoxicity was evaluated (percentage of leaf necrosis) induced on the wheat plants by the application of the products: in this case, the evaluation scale varies from 0 (completely healthy plant) to 100 (completely necrotized plant).

| SMILES | Activity NT (parts which had developed during the test) [1] | Activity T (parts treated directly with the products) [1] | Phytotoxicity [2] |
| --- | --- | --- | --- |
| CC1CC(C)(C)c2cccc(NC(=O)c3cn(C)nc3C(F)F)c21 (stereo not drawn) [CR-1, 3-difluoromethyl-1-methyl-N-(1,1,3-trimethyl-4-indanyl)-4-pyrazolecarboxamide] | 65 | 70 | 10 |
| Cc1c(C(=O)Nc2ccc(F)c3c2CCC3(C)C)c(C(F)(F)F)nn1C [CR-2, 1,5-dimethyl-3-trifluoro-methyl-N-(1,1-dimethyl-7-fluoro-4-indanyl)-4-pyrazolecarboxamide] | 15 | 25 | 0 |
| Cc1nn(C)c(C)c1C(=O)Nc1c(F)ccc2c1CCC2(C)C [CR-3, 1,3,5-trimethyl-N-(1,1-dimethyl-5-fluoro-4-indanyl)-4-pyrazolecarboxamide] | 0 | 10 | 0 |
| CC1CC(C)(C)c2c(F)ccc(NC(=O)c3cn(C)nc3C(F)F)c21 (stereo not drawn) [Compound N. 1, 3-difluoromethyl-N-(7-fluoro-1,1,3-trimethyl-4-indanyl)-1-methyl-4-pyrazolecarboxamide] | 90 | 95 | 0 |
